# “And” between values parts separate entries of the source, which are not always exact repeats. Equal values may be shown once.
# Species on record: Rattus norvegicus
# Assay: DrugMatrix - Regimen: Daily Repeat
# Type: toxicity, organism-based, Sprague-Dawley
# Design: regimen Daily Repeat, gender Male, age 6-8 weeks
# Conditions: in vivo, ip, route intraperitoneal, vehicle 100 % SALINE; for ABSOLUTE BASOPHIL / ABSOLUTE EOSINOPHIL / ABSOLUTE LYMPHOCYTE / ABSOLUTE MONOCYTE / ABSOLUTE SEGMENTED NEUTROPHIL / BASOPHIL / EOSINOPHIL / ERYTHROCYTE COUNT / HEMATOCRIT / HEMOGLOBIN / LEUKOCYTE COUNT / LYMPHOCYTE / MEAN CORPUSCULAR HEMOGLOBIN / MEAN CORPUSCULAR HEMOGLOBIN CONCENTRATION / MEAN CORPUSCULAR VOLUME / MONOCYTE / NEUTROPHIL / PLATELET COUNT: tissue Blood; for ALANINE AMINOTRANSFERASE / ALBUMIN / ALKALINE PHOSPHATASE / ASPARTATE AMINOTRANSFERASE / BLOOD UREA NITROGEN / CARBON DIOXIDE / CHLORIDE / CHOLESTEROL / CREATINE PHOSPHOKINASE / CREATININE / GLUCOSE / LACTATE DEHYDROGENASE / LIPASE / PHOSPHORUS / POTASSIUM / SODIUM / TOTAL BILIRUBIN / TOTAL PROTEIN / URIC ACID: tissue Plasma
# [1] = 0 mg/kg, 120 h, dose level Control, time 5 day
# [2] = 0 mg/kg, […], dose level Control, time 14 day
# [3] = 0 mg/kg, […], dose level Control, time 28 day
# [4] = 40 mg/kg, 120 h, dose level High, time 5 day
# [5] = 40 mg/kg, […], dose level High, time 14 day
# [6] = 40 mg/kg, […], dose level High, time 28 day
compound,measurement,setting,value
CCN[C@@H]1C[C@H](N)[C@@H](O[C@H]2OC(CN)=CC[C@H]2N)[C@H](O)[C@H]1O[C@H]1OC[C@](C)(O)[C@H](NC)[C@H]1O [NETILMICIN],ABSOLUTE BASOPHIL,[1],32 cells/µL
same,ABSOLUTE EOSINOPHIL,[1],110 cells/µL
same,ABSOLUTE LYMPHOCYTE,[1],6630 cells/µL
same,ABSOLUTE MONOCYTE,[1],140 cells/µL
same,ABSOLUTE SEGMENTED NEUTROPHIL,[1],1170 cells/µL
same,BASOPHIL,[1],0.38% and 0.35%
same,EOSINOPHIL,[1],1.28% and 0.62%
same,ERYTHROCYTE COUNT,[1],7.45 x10E6/uL and 7.26 x10E6/uL
same,HEMATOCRIT,[1],45.74% and 47.97%
same,HEMOGLOBIN,[1],14.72 G/DL and 15.38 G/DL
same,LEUKOCYTE COUNT,[1],8.11 x10E3/uL and 8.68 x10E3/uL
same,LYMPHOCYTE,[1],81.3% and 86.77%
same,MEAN CORPUSCULAR HEMOGLOBIN,[1],19.76 pg and 21.18 pg
same,MEAN CORPUSCULAR HEMOGLOBIN CONCENTRATION,[1],32.16 G/DL and 32.05 G/DL
same,MEAN CORPUSCULAR VOLUME,[1],61.38 fL and 66.15 fL
same,MONOCYTE,[1],1.76% and 1.57%
same,NEUTROPHIL,[1],14.9% and 9.53%
same,PLATELET COUNT,[1],1322.4 x10E3/uL and 1786 x10E3/uL
same,ALANINE AMINOTRANSFERASE,[1],25.8 u/L and 20.5 u/L
same,ALBUMIN,[1],3.64 G/DL and 4.35 G/DL
same,ALKALINE PHOSPHATASE,[1],233.6 u/L and 300 u/L
same,ASPARTATE AMINOTRANSFERASE,[1],81.4 u/L and 86.75 u/L
same,BLOOD UREA NITROGEN,[1],14.4 mg/dL and 17 mg/dL
same,CARBON DIOXIDE,[1],29 mmol/L
same,CHLORIDE,[1],105.6 MEQ/L and 106.25 MEQ/L
same,CHOLESTEROL,[1],69.2 mg/dL and 51.25 mg/dL
same,CREATINE PHOSPHOKINASE,[1],384.75 u/L
same,CREATININE,[1],0.56 mg/dL and 0.47 mg/dL
same,GLUCOSE,[1],125.4 mg/dL and 128.75 mg/dL
same,LACTATE DEHYDROGENASE,[1],105.4 u/L and 145 u/L
same,LIPASE,[1],22.4 u/L and 13.25 u/L
same,PHOSPHORUS,[1],11.48 mg/dL and 11.8 mg/dL
same,POTASSIUM,[1],5.52 MEQ/L and 6.58 MEQ/L
same,SODIUM,[1],147 MEQ/L and 151 MEQ/L
same,TOTAL BILIRUBIN,[1],0.2 mg/dL and 0.33 mg/dL
same,TOTAL PROTEIN,[1],6.1 G/DL and 6.53 G/DL
same,URIC ACID,[1],1.06 mg/dL and 1.95 mg/dL
same,ABSOLUTE BASOPHIL,[2],130 cells/µL
same,ABSOLUTE EOSINOPHIL,[2],140 cells/µL
same,ABSOLUTE LYMPHOCYTE,[2],13500 cells/µL
same,ABSOLUTE MONOCYTE,[2],400 cells/µL
same,ABSOLUTE SEGMENTED NEUTROPHIL,[2],2330 cells/µL
same,HEMATOCRIT,[2],45.98%
same,ABSOLUTE BASOPHIL,[3],91 cells/µL
same,ABSOLUTE EOSINOPHIL,[3],110 cells/µL
same,ABSOLUTE LYMPHOCYTE,[3],9910 cells/µL
same,ABSOLUTE MONOCYTE,[3],210 cells/µL
same,ABSOLUTE SEGMENTED NEUTROPHIL,[3],1560 cells/µL
same,BASOPHIL,[3],0.77%
same,EOSINOPHIL,[3],0.92%
same,ERYTHROCYTE COUNT,[3],8.21 x10E6/uL
same,HEMATOCRIT,[3],47.53%
same,HEMOGLOBIN,[3],15.65 G/DL
same,LEUKOCYTE COUNT,[3],11.91 x10E3/uL
same,LYMPHOCYTE,[3],83.34%
same,MEAN CORPUSCULAR HEMOGLOBIN,[3],19.07 pg
same,MEAN CORPUSCULAR HEMOGLOBIN CONCENTRATION,[3],32.93 G/DL
same,MEAN CORPUSCULAR VOLUME,[3],57.9 fL
same,MONOCYTE,[3],1.68%
same,NEUTROPHIL,[3],12.97%
same,PLATELET COUNT,[3],1323.8 x10E3/uL
same,CARBON DIOXIDE,[2],25 mmol/L
same,ALANINE AMINOTRANSFERASE,[3],30 u/L
same,ALBUMIN,[3],3.71 G/DL
same,ALKALINE PHOSPHATASE,[3],186.8 u/L
same,ASPARTATE AMINOTRANSFERASE,[3],78.2 u/L
same,BLOOD UREA NITROGEN,[3],14.2 mg/dL
same,CHLORIDE,[3],105.4 MEQ/L
same,CHOLESTEROL,[3],44.9 mg/dL
same,CREATINE PHOSPHOKINASE,[3],334.3 u/L
same,CREATININE,[3],0.6 mg/dL
same,GLUCOSE,[3],147.2 mg/dL
same,LACTATE DEHYDROGENASE,[3],123.1 u/L
same,LIPASE,[3],9.6 u/L
same,PHOSPHORUS,[3],10.01 mg/dL
same,POTASSIUM,[3],6.57 MEQ/L
same,SODIUM,[3],149.5 MEQ/L
same,TOTAL BILIRUBIN,[3],0.21 mg/dL
same,TOTAL PROTEIN,[3],6.66 G/DL
same,URIC ACID,[3],1.26 mg/dL
same,ABSOLUTE BASOPHIL,[4],100 cells/µL
same,ABSOLUTE EOSINOPHIL,[4],100 cells/µL
same,ABSOLUTE LYMPHOCYTE,[4],9410 cells/µL
same,ABSOLUTE MONOCYTE,[4],270 cells/µL
same,ABSOLUTE SEGMENTED NEUTROPHIL,[4],2070 cells/µL
same,BASOPHIL,[4],0.82% and 0.23%
same,EOSINOPHIL,[4],0.84% and 0.53%
same,ERYTHROCYTE COUNT,[4],7.28 x10E6/uL and 7.2 x10E6/uL
same,HEMATOCRIT,[4],44.78% and 47.4%
same,HEMOGLOBIN,[4],14.6 G/DL and 14.93 G/DL
same,LEUKOCYTE COUNT,[4],12 x10E3/uL and 6.78 x10E3/uL
same,LYMPHOCYTE,[4],78.86% and 87.63%
same,MEAN CORPUSCULAR HEMOGLOBIN,[4],20.02 pg and 20.77 pg
same,MEAN CORPUSCULAR HEMOGLOBIN CONCENTRATION,[4],32.56 G/DL and 31.5 G/DL
same,MEAN CORPUSCULAR VOLUME,[4],61.44 fL and 65.9 fL
same,MONOCYTE,[4],2.18% and 1.53%
same,NEUTROPHIL,[4],16.76% and 9.17%
same,PLATELET COUNT,[4],1295.4 x10E3/uL and 1697.67 x10E3/uL
same,ALANINE AMINOTRANSFERASE,[4],28.4 u/L and 20.25 u/L
same,ALBUMIN,[4],3.44 G/DL and 4.28 G/DL
same,ALKALINE PHOSPHATASE,[4],235.6 u/L and 305.25 u/L
same,ASPARTATE AMINOTRANSFERASE,[4],91.8 u/L and 87.25 u/L
same,BLOOD UREA NITROGEN,[4],12 mg/dL and 14.25 mg/dL
same,CARBON DIOXIDE,[4],24.75 mmol/L
same,CHLORIDE,[4],108.2 MEQ/L and 108.25 MEQ/L
same,CHOLESTEROL,[4],53.8 mg/dL and 53 mg/dL
same,CREATINE PHOSPHOKINASE,[4],194.6 u/L and 310.75 u/L
same,CREATININE,[4],0.5 mg/dL and 0.47 mg/dL
same,GLUCOSE,[4],137 mg/dL and 119.5 mg/dL
same,LACTATE DEHYDROGENASE,[4],83.75 u/L and 121.25 u/L
same,LIPASE,[4],16 u/L and 7 u/L
same,PHOSPHORUS,[4],10.04 mg/dL and 12.5 mg/dL
same,POTASSIUM,[4],6.52 MEQ/L and 5.8 MEQ/L
same,SODIUM,[4],151.2 MEQ/L and 152.75 MEQ/L
same,TOTAL BILIRUBIN,[4],0.12 mg/dL and 0.28 mg/dL
same,TOTAL PROTEIN,[4],5.86 G/DL and 6.35 G/DL
same,URIC ACID,[4],1.12 mg/dL and 2.02 mg/dL
same,ABSOLUTE BASOPHIL,[5],76 cells/µL
same,ABSOLUTE EOSINOPHIL,[5],100 cells/µL
same,ABSOLUTE LYMPHOCYTE,[5],7150 cells/µL
same,ABSOLUTE MONOCYTE,[5],160 cells/µL
same,ABSOLUTE SEGMENTED NEUTROPHIL,[5],980 cells/µL
same,ABSOLUTE BASOPHIL,[6],110 cells/µL
same,ABSOLUTE EOSINOPHIL,[6],110 cells/µL
same,ABSOLUTE LYMPHOCYTE,[6],11000 cells/µL
same,ABSOLUTE MONOCYTE,[6],220 cells/µL
same,ABSOLUTE SEGMENTED NEUTROPHIL,[6],1680 cells/µL
same,BASOPHIL,[6],0.84%
same,EOSINOPHIL,[6],0.81%
same,ERYTHROCYTE COUNT,[6],8.07 x10E6/uL
same,HEMATOCRIT,[6],45.66%
same,HEMOGLOBIN,[6],15.06 G/DL
same,LEUKOCYTE COUNT,[6],13.21 x10E3/uL
same,LYMPHOCYTE,[6],83.38%
same,MEAN CORPUSCULAR HEMOGLOBIN,[6],18.66 pg
same,MEAN CORPUSCULAR HEMOGLOBIN CONCENTRATION,[6],32.99 G/DL
same,MEAN CORPUSCULAR VOLUME,[6],56.56 fL
same,MONOCYTE,[6],1.71%
same,NEUTROPHIL,[6],12.78%
same,PLATELET COUNT,[6],1402.4 x10E3/uL
same,CARBON DIOXIDE,[5],27 mmol/L
same,ALANINE AMINOTRANSFERASE,[6],27.9 u/L
same,ALBUMIN,[6],3.58 G/DL
same,ALKALINE PHOSPHATASE,[6],144.2 u/L
same,ASPARTATE AMINOTRANSFERASE,[6],86.4 u/L
same,BLOOD UREA NITROGEN,[6],16.3 mg/dL
same,CHLORIDE,[6],108.5 MEQ/L
same,CHOLESTEROL,[6],59.4 mg/dL
same,CREATINE PHOSPHOKINASE,[6],139.4 u/L
same,CREATININE,[6],0.7 mg/dL
same,GLUCOSE,[6],120.4 mg/dL
same,LACTATE DEHYDROGENASE,[6],85.6 u/L
same,LIPASE,[6],22.9 u/L
same,PHOSPHORUS,[6],8.66 mg/dL
same,POTASSIUM,[6],5.83 MEQ/L

# Source: ChEMBL document CHEMBL3885881, “DrugMatrix”
